Reference: patent US20120100097A1, “CELLULOSE SUPPORT CONTAINING D-MANNOSE DERIVATIVES” (priority 2009, published 2012)

These compounds were tested on Escherichia coli with type 1 pili (strain 382). Details: minimum inhibitive concentration (mg/ml) divided by that of D-mannose, x100; lower = stronger; free mannose derivatives before copolymerization.
Type: cell-based
Text: The conducted bacteriological test is an agglutination yeast test. In fact the bacteria Escherichia coli with type 1 pili, have the capacity to agglutinate yeasts. The agglutination may be prevented by mannose derivatives. The strain 382 of Escherichia coli obtained from National Bacteriological Laboratory of Stockholm, which expresses in a stable manner type 1 pili, is used. The expression of the pili can be enhanced by growing bacteria by way of three subcultures in a nutrient broth (NB, oxiod). After culture the bacteria are centrifuged and added as suspension in the same amount of phosphate buffered saline (PBS pH 7.2). A concentration of bacteria equal to 2-3.10^9 bacteria/ml is obtained. Baker's yeasts are added as suspension into PBS at a final concentration of 5.10^8 cells/ml. The various mannose derivatives are diluted from the initial concentration of 20 mg/ml maximum in two stages in PBS. Into 50 μl of each diluted sugar 50 μl of Escherichia coli is added and incubated at room temperature for 15 min to allow interaction. Finally 50 μl of yeast is added into each tube. After another 15 min. incubation at room temperature and one night at 4° C., agglutination, in other words interaction between bacteria and yeast, is evaluated.
`OCCOCCO[C@H]1OC(CO)[C@@H](O)[C@H](O)C1O` (stereo partly drawn) [Compound 4, 2-[(2-hydroxy-)ethoxy-]-ethyl α-D-Mannopyranoside] was tested, and the “Inhibitive activity in %” value was 24%. For `COCCOCCO[C@H]1O[C@H](CO)[C@@H](O)[C@H](O)[C@@H]1O` [Compound 7, 2-[(2-methoxy-)ethoxy-]-ethyl α-D-Mannopyranoside], the “Inhibitive activity in %” value was 24%. `C=CCO[C@H]1OC(CO)[C@@H](O)C(O)C1O` (stereo partly drawn) [Compound 8, Allyl-α-D-mannopyranoside] was tested, and the “Inhibitive activity in %” value was 0.12%. In the case of `OCC1O[C@H](OCc2ccccc2)C(O)[C@@H](O)[C@@H]1O` (stereo partly drawn) [Compound 10, Benzyl-α-D-Mannopyranoside], the “Inhibitive activity in %” value was 24%. With `Nc1ccc(O[C@H]2O[C@H](CO)[C@@H](O)[C@H](O)[C@@H]2O)cc1` [Compound 12, p-Aminophenyl-α-D-Mannopyranoside] the “Inhibitive activity in %” value was 0.93%. `O=[N+]([O-])c1ccc(O[C@H]2O[C@H](CO)[C@@H](O)[C@H](O[C@H]3O[C@H](CO)[C@@H](O)[C@H](O)[C@@H]3O)[C@@H]2O)cc1` [Compound 15, p-Nitrophenyl 3-O-α-D-Mannopyranosyl-α-DMannopyranoside] was tested, and the “Inhibitive activity in %” value was 0.70%. In the case of `O=C[C@@H](O)[C@@H](O)[C@H](O)[C@H](O)CO` [D-Mannose], the “Inhibitive activity in %” value was 100%. `CCS[C@H]1O[C@H](CO)[C@@H](O)[C@H](O)[C@@H]1O` [Ethyl 1-thio-α-D-mannopyranoside, reference compound] was tested, and the “Inhibitive activity in %” value was 18%. With `CO[C@H]1O[C@H](CO)[C@@H](O)[C@H](O)[C@@H]1O` [Methyl-α-D-Mannoside, reference compound] the “Inhibitive activity in %” value was 45%.

The compounds below were run on Escherichia coli with type 1 pili (strain 382). Details: agglutination test of the terpolymer directly on Escherichia coli strains; relative to D mannose = 100.
Type: cell-based
`O=C[C@@H](O)[C@@H](O)[C@H](O)[C@H](O)CO` [D-Mannose] gave an Inhibitative activity of 100%.
